In PMC11170206, “A novel fatty acid mimetic with pan-PPAR partial agonist activity inhibits diet-induced obesity and metabolic dysfunction-associated steatotic liver disease” (Molecular Metabolism, 2024):

How the values were obtained:
Assay type in all cases: cell-based
[1] = target: T1, PPARα (Mus musculus, UniProt P23204); experiment: GAL4/UAS-luciferase reporter assay in transfected HEK293 cells, positive control agonist
T1 construct: gene Ppara; GAL4-mPPARα
T1 sequence (P23204 1-468): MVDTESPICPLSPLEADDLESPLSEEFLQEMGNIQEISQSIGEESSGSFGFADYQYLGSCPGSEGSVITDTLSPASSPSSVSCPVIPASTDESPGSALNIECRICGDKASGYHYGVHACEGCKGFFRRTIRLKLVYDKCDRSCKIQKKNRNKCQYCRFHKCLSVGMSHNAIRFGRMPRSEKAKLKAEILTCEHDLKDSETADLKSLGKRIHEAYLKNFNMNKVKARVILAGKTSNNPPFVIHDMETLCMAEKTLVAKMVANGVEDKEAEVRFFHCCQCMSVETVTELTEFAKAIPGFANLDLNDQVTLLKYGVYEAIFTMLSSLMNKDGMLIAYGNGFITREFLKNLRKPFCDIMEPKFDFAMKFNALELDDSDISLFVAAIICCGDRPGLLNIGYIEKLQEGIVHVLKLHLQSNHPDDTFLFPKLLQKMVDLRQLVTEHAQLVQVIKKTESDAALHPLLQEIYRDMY

[2] = target: T1, PPARα; experiment: GAL4/UAS-luciferase reporter assay in transfected HEK293 cells, dose-response (partial agonist)
[3] = target: T2, PPARδ (Mus musculus, UniProt P35396); experiment: as above
T2 construct: gene Ppard; GAL4-mPPARδ
T2 sequence (P35396 210-440 limits assumed): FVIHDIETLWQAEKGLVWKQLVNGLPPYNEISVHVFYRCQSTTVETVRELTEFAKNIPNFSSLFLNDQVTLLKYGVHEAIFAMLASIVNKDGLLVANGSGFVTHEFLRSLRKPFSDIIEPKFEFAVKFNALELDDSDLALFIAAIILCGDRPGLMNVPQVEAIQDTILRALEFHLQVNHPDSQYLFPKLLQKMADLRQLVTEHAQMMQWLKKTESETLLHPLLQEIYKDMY

[4] = target: T3, PPARγ (Mus musculus, UniProt P37238); experiment: as above
T3 construct: gene Pparg; GAL4-mPPARγ
T3 sequence (P37238 1-505): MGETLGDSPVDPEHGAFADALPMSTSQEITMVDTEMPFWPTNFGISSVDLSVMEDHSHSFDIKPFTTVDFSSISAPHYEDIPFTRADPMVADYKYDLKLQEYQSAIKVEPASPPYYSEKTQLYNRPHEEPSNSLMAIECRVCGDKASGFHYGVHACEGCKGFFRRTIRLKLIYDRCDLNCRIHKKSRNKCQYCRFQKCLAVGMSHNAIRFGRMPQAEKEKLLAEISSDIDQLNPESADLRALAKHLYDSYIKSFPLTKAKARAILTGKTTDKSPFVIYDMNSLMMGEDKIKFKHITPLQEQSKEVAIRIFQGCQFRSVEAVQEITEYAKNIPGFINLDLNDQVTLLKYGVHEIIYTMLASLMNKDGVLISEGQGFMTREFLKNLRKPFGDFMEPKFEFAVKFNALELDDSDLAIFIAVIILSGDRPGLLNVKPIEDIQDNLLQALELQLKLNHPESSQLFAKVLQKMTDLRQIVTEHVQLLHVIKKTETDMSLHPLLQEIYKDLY

SMILES | GAL4/UAS-luciferase reporter assay in transfected HEK293 cells, positive control [1] | EC50 [2] | EC50 [3] | EC50 [4]
Cc1cccc(Nc2cc(Cl)nc(SCC(=O)O)n2)c1C [WY14643] | full dose–response curve comparing LDT409 against positive controls for each mouse PPAR (WY, PPARα agonist; |  |  | 
CCCCCCCCCCCCCCCc1cccc(OC(C)(C)C(=O)O)c1 [LDT409] |  | 100 nM | 1000 nM | 100 nM
